# Measurements reported in ChEMBL document CHEMBL5120969, “Identification of Monosaccharide Derivatives as Potent, Selective, and Orally Bioavailable Inhibitors of Human and Mouse Galectin-3” (J Med Chem, 2022).
# Key:
# [1] = Permeability of the compound at pH 5.5 measured for 4 hrs by UV plate reader based PAMPA assay; assay type: ADME; conditions: read-out: permeability
# [2] = Permeability of the compound at pH 7.4 measured for 4 hrs by UV plate reader based PAMPA assay; assay type: ADME; conditions: read-out: permeability
# [3] = Cmax in C57BL6 mouse at 10 mg/kg, po measured upto 24 hrs by LC-MS/MS analysis; assay type: ADME, organism-based; design: time < 24 hrs, dose 10 mg/kg, route po; conditions: in vivo
# [4] = AUC (0 to 24 hrs) in C57BL6 mouse at 10 mg/kg, po measured upto 24 hrs by LC-MS/MS analysis; assay type: ADME, organism-based; design: dose 10 mg/kg, time < 24 hrs, route po; conditions: in vivo
# [5] = Clearance in C57BL6 mouse at 2 mg/kg, iv measured upto 24 hrs by LC-MS/MS analysis; assay type: ADME, organism-based; conditions: in vivo
# [6] = Volume of distribution at steady state in C57BL6 mouse at 2 mg/kg, iv measured upto 24 hrs by LC-MS/MS analysis; assay type: ADME, organism-based; conditions: in vivo, read-out: Vdss
# [7] = Oral bioavailability in C57BL6 mouse at 10 mg/kg measured upto 24 hrs by LC-MS/MS analysis; assay type: ADME, organism-based; conditions: in vivo
# [8] = Metabolic stability of the compound in rat liver microsomes assessed as CYP450-mediated metabolism by measuring parent compound remaining at 0.5 uM measured after 10 mins in presence of NADPH by LC-MS/MS analysis; assay type: ADME, Microsome; conditions: read-out: Stability
# [9] = Metabolic stability of the compound in mouse liver microsomes assessed as CYP450-mediated metabolism by measuring parent compound remaining at 0.5 uM measured after 10 mins in presence of NADPH by LC-MS/MS analysis; assay type: ADME, Microsome; conditions: read-out: Stability
compound,measurement,setting,value
COc1ccc(Cl)cc1-n1nc(C)nc1[C@@H]1O[C@H](CO)[C@H](O)[C@H](n2cc(-c3cc(F)c(F)c(F)c3)nn2)[C@H]1O,Papp at 4 h,[1],15.7 ×10⁻⁶ cm/s
same,Papp at 4 h,[2],14 ×10⁻⁶ cm/s
Cc1nc([C@@H]2O[C@H](CO)[C@H](O)[C@H](n3cc(-c4cc(F)c(F)c(F)c4)nn3)[C@H]2O)n(-c2cccc(Cl)c2Cl)n1,Papp at 4 h,[1],42.3 ×10⁻⁶ cm/s
same,Papp at 4 h,[2],45.2 ×10⁻⁶ cm/s
Cc1nc([C@@H]2O[C@H](CO)[C@H](O)[C@H](n3cc(-c4cc(F)c(F)c(F)c4)nn3)[C@H]2O)n(-c2cc(Cl)ccc2Cl)n1,Papp at 4 h,[1],24.7 ×10⁻⁶ cm/s
same,Papp at 4 h,[2],30.4 ×10⁻⁶ cm/s
Cc1nc([C@@H]2O[C@H](CO)[C@H](O)[C@H](n3cc(-c4cc(F)c(F)c(F)c4)nn3)[C@H]2O)n(-c2cc(Cl)ccc2C(F)(F)F)n1,Papp at 4 h,[1],51.1 ×10⁻⁶ cm/s
same,Papp at 4 h,[2],36.9 ×10⁻⁶ cm/s
Cc1nc([C@@H]2O[C@H](CO)[C@H](O)[C@H](n3cc(-c4cc(F)c(F)c(F)c4)nn3)[C@H]2O)n(-c2cc(Cl)ccc2F)n1,Papp at 4 h,[1],12.7 ×10⁻⁶ cm/s
same,Papp at 4 h,[2],12.5 ×10⁻⁶ cm/s
Cc1nc([C@@H]2O[C@H](CO)[C@H](O)[C@H](n3cc(-c4ccc(Br)c(F)c4F)nn3)[C@H]2O)n(-c2cc(Cl)ccc2C(F)(F)F)n1,Cmax,[3],5 µM
same,AUC(0-t) at 24 h,[4],40 µM·h
same,clearance,[5],2.7 mL/min/kg
same,Vd,[6],2.4 L/kg
same,bioavailability,[7],40%
Cc1nc([C@@H]2O[C@H](CO)[C@H](O)[C@H](n3cc(-c4cc(F)c(F)c(F)c4)nn3)[C@H]2O)n(-c2cccc(Cl)c2)n1,Papp at 4 h,[1],36.3 ×10⁻⁶ cm/s
same,Papp at 4 h,[2],34.5 ×10⁻⁶ cm/s
OC[C@H]1O[C@@H](c2nncn2-c2cccc(Cl)c2)[C@H](O)[C@@H](n2cc(-c3cc(F)c(F)c(F)c3)nn2)[C@H]1O,Papp at 4 h,[2],0.6 ×10⁻⁶ cm/s
Cc1nc([C@@H]2O[C@H](CO)[C@H](O)[C@H](n3cc(-c4cc(F)c(F)c(F)c4)nn3)[C@H]2O)n(-c2cc(Cl)ccc2C)n1,Papp at 4 h,[1],15 ×10⁻⁶ cm/s
same,Papp at 4 h,[2],18.1 ×10⁻⁶ cm/s
OC[C@H]1O[C@@H](c2ncnn2-c2cccc(Cl)c2)[C@H](O)[C@@H](n2cc(-c3cc(F)c(F)c(F)c3)nn2)[C@H]1O,Papp at 4 h,[2],20.3 ×10⁻⁶ cm/s
Cc1nc([C@@H]2O[C@H](CO)[C@H](O)[C@H](n3cc(-c4cc(F)c(F)c(F)c4)nn3)[C@H]2O)n(-c2ccc(Cl)c(Cl)c2)n1,Papp at 4 h,[1],44.4 ×10⁻⁶ cm/s
same,Papp at 4 h,[2],45.6 ×10⁻⁶ cm/s
Cc1nc([C@@H]2O[C@H](CO)[C@H](O)[C@H](n3cc(-c4cc(F)c(F)c(F)c4)nn3)[C@H]2O)n(-c2cc(Cl)ccc2Br)n1,Papp at 4 h,[1],14.5 ×10⁻⁶ cm/s
same,Papp at 4 h,[2],14.8 ×10⁻⁶ cm/s
OC[C@H]1O[C@@H](n2nncc2-c2ccc(Cl)c(Cl)c2)[C@H](O)[C@@H](n2cc(-c3cc(F)c(F)c(F)c3)nn2)[C@H]1O,Papp at 4 h,[2],7 ×10⁻⁶ cm/s
Cc1nc([C@@H]2O[C@H](CO)[C@H](O)[C@H](n3cc(-c4ccc(Cl)c(F)c4F)nn3)[C@H]2O)n(-c2cc(Cl)ccc2C(F)(F)F)n1,Cmax,[3],3.6 µM
same,AUC(0-t) at 24 h,[4],37 µM·h
Cc1nc([C@@H]2O[C@H](CO)[C@H](O)[C@H](n3cc(-c4cc(F)c(F)c(F)c4)nn3)[C@H]2O)n(-c2cc(Cl)cc(Cl)c2)n1,Papp at 4 h,[1],10.8 ×10⁻⁶ cm/s
same,Papp at 4 h,[2],12.5 ×10⁻⁶ cm/s
Cc1nc([C@@H]2O[C@H](CO)[C@H](O)[C@H](n3cc(-c4cc(F)c(Cl)c(F)c4)nn3)[C@H]2O)n(-c2cc(Cl)ccc2C(F)(F)F)n1,"remaining at 10 min, 0.5 µM",[8],91%
same,"remaining at 10 min, 0.5 µM",[9],85%
same,Cmax,[3],5 µM
same,AUC(0-t) at 24 h,[4],40 µM·h
same,clearance,[5],7 mL/min/kg
same,Vd,[6],1.7 L/kg
same,bioavailability,[7],100%
OC[C@H]1O[C@@H](n2nncc2-c2cccc(Cl)c2)[C@H](O)[C@@H](n2cc(-c3cc(F)c(F)c(F)c3)nn2)[C@H]1O,Papp at 4 h,[1],3.1 ×10⁻⁶ cm/s
same,Papp at 4 h,[2],3.3 ×10⁻⁶ cm/s
